Data as given in patent publication US8637510B2, “Morpholinothiazoles as alpha 7 positive allosteric modulators” (Janssen Pharmaceutica NV, priority 2009, dated 2014).

Key:
human alpha 7-wt nAChR = target: T1, human alpha 7-wt nAChR (Homo sapiens, UniProt P36544); assay: Ca2+ flux imaging (FDSS) (Protocol B); assay type: cell-based; conditions: for Emax: efficacy of 100 μM choline defined as 100% in the absence of a PAM, read-out: a7-PAM-G_[33]_Eff_Curve_FI % Efficacy; for EC50: potentiation of 100 μM choline, compounds 0.01 μM to 30 μM, read-out: a7-PAM-G_[33]_pEC50 pEC50 (converted)
T1 construct: expressed in transfected cells
Procedure, shortened: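 Fluo-4AM-loaded cells expressing human α7-wt nAChR, in HBSS with 10 mM HEPES, 5 mM CaCl2, 0.1% BSA, received compound (0.01–30 μM), typically 10 min before 100 μM choline, with calcium flux read in real time. Potentiation is relative to choline alone (100%); EC50 from sigmoidal curves.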

DBA/2 mice = assay: Auditory evoked potential test in DBA/2 mice; assay type: in vivo, mouse; conditions: s.c.; male DBA/2 mice; TC ratio vs baseline, p<0.05
From the text: A number of compounds according to the invention have proven active in the auditory evoked potential test. […] The DBA/2 mouse has proven to be a useful model of schizophrenia-like sensory processing deficits. Human studies of nicotine effects on sensory processing predicted the results in the DBA/2 mouse and studies with the selective alpha 7 agonist GTS-21 in DBA/2 mice, predicted the effects in humans. This model of sensory gating ability therefore has high translational relevance.
The vehicle used was 20% hydroxypropyl-β-cyclodextrin (HP-β-CD) in water, acidified slightly with a few drops of tartaric acid. Both drug solution and vehicle were administered s.c. in a volume of 4 ml/kg. […]
The ratio of the P20-N40 amplitude of response to the second (test) stimulus and the first (conditioning) stimulus provides a measure of sensory inhibition; the ratio of the test to the conditioning amplitude (TC ratio) is 0.5 or less for most rodent strains and normal humans. […] The maximum negativity between 20 and 60 ms after the two stimuli was selected as the N40 wave and measured relative to the preceding positivity, the P20 wave. The amplitude from the P20 to the N40 wave was determined for both the conditioning and the test response. […]
All data were analyzed by multivariate analysis of variance with repeated measures. […]

T1 sequence (P36544 23-502): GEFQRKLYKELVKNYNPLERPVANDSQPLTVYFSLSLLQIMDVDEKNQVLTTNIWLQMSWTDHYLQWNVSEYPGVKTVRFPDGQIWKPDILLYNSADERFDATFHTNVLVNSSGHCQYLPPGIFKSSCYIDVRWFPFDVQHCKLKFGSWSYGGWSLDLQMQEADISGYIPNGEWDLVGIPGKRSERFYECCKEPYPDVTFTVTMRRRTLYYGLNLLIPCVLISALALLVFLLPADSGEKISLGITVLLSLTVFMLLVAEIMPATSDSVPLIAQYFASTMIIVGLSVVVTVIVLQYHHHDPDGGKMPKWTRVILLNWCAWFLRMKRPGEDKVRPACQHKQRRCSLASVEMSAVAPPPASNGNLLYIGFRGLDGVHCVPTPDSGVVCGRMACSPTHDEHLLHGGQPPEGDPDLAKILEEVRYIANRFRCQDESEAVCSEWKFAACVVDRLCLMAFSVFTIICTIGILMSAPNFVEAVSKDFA

| Emax (human alpha 7-wt nAChR) [%] | EC50 (human alpha 7-wt nAChR) [nM] | Structure (SMILES) | lowest active dose (DBA/2 mice) [mg/kg] |
| --- | --- | --- | --- |
| 796 | 186 | Cc1cc(-c2sc(N3C[C@@H](C)O[C@@H](C)C3)nc2CNC(=O)CC2CC2)cc(C)n1 [Compound 1, N-[[2-[(2R,6S)-2,6-dimethyl-4-morpholinyl]-5-(2,6-dimethyl-4-pyridinyl)-4-thiazolyl]methyl]-cyclopropaneacetamide] | 0.63 |
| 815 | 380 | Cc1cc(-c2sc(N3C[C@@H](C)O[C@@H](C)C3)nc2CNC(=O)c2conc2C)cc(C)n1 [Compound 18, N-[[2-[(2R,6S)-2,6-dimethyl-4-morpholinyl]-5-(2,6-dimethyl-4-pyridinyl)-4-thiazolyl]methyl]-3-methyl-4-isoxazolecarboxamide] | 0.04 |
